# Assay results: patent publication US11773078B2, “Furin inhibitors” (Glaxosmithkline Intellectual Property Development Limited, priority 2018, dated 2023)
# Assays:
# [1] = molecular target: T1, Furin (108-574-Tev-Flag-His) enzyme (Homo sapiens, UniProt P09958); experiment: Furin enzyme assay; format: biochemical; conditions: for IC50: read-out: furin enzyme pIC50 (converted)
# T1 construct: Furin (108-574-Tev-Flag-His) enzyme was expressed and purified from CHO cells; TEV cleavage site (C); FLAG (C); His (C); made in house; host or cells: CHO cells
# T1 sequence (P09958 108-574): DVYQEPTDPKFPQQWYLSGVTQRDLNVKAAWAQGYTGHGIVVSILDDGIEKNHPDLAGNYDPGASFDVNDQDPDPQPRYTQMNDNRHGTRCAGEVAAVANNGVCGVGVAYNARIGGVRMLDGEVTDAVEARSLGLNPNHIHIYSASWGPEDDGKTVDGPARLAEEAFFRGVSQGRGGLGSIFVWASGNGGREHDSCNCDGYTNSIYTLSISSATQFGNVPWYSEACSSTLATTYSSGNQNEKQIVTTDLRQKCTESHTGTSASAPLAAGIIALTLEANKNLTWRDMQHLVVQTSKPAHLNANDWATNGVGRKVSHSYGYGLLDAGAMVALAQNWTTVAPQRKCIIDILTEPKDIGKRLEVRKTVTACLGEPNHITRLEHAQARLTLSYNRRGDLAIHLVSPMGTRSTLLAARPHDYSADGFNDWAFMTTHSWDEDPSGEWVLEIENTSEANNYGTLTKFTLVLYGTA
# Outline: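 Compounds ran as 11-point threefold dilutions (0.00017–10 μM final) against 40 pM furin, purified from CHO cells, for 2 h at room temperature. Buffer: 100 mM HEPES pH7.5 with 1 mM CaCl2 and 0.005% Triton X-100. Envision readout. Four-parameter curve gives pXC50.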
# [2] = molecular target: T2, furin (endogenous protease) in U20S cells (Homo sapiens, UniProt P09958); experiment: Furin cell-based assay (image-based, Golgi-targeted GFP with BMP10 furin/PCSK cleavage site); conditions: 24-hour incubation, read-out: furin golgi cell pXC50 (converted);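 note: Read-out is mean GFP fluorescence of Golgi puncta per cell by high-content imaging, retained when furin inhibited, over an eleven-point 0.00017–10 µM series, four-parameter fit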
# T2 construct: the endogenous protease cleaves GFP; endogenous in cells; host or cells: U2OS cells transduced with a BacMam reporter
# T2 sequence (P09958 108-794): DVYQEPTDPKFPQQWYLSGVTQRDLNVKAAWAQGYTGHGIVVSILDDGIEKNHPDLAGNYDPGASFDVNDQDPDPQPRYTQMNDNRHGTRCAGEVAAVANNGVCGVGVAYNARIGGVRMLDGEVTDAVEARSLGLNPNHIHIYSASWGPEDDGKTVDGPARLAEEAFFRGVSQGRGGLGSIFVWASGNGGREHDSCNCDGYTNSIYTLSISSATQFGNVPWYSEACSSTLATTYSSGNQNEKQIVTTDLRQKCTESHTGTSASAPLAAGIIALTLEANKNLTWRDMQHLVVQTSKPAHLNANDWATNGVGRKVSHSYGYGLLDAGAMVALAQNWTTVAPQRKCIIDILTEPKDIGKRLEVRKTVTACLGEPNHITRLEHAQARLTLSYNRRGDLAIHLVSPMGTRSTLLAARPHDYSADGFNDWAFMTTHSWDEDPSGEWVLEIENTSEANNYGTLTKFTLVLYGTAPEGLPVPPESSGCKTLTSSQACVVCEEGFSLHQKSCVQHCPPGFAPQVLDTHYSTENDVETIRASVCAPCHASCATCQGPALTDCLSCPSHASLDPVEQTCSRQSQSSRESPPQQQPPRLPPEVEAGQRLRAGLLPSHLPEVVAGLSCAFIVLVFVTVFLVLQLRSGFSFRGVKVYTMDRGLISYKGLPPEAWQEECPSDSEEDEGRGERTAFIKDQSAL
furin enzyme pIC50 [1],EC50 [2],IC50 [1],SMILES
9.8,5.01 nM,–,"COC(=O)NCC1CCN(Cc2cc(Oc3ccc(N4CCN(CCCS(C)(=O)=O)CC4)nc3)nc(-c3cc(Cl)cc(Cl)c3)c2)CC1 [Example 217, methyl ((1-((2-(3,5-dichlorophenyl)-6-((6-(4-(3-(methylsulfonyl)propyl)piperazin-1-yl)pyridin-3-yl)oxy)pyridin-4-yl)methyl)piperidin-4-yl)methyl)carbamate]"
10.1,2 nM,–,"CC(=O)NCC1CCN(Cc2cc(Oc3ccc(N4CCN(CCC(C)S(C)(=O)=O)CC4)nc3)nc(-c3cc(Cl)cc(Cl)c3)c2)CC1 (stereo not shown) [Example 218, N-((1-((2-(3,5-dichlorophenyl)-6-((6-(4-(3-(methylsulfonyl)butyl)piperazin-1-yl)pyridin-3-yl)oxy)pyridin-4-yl)methyl)piperidin-4-yl)methyl)acetamide]"
9.8,0.398 nM,–,"CNC(=O)NCC1CCN(Cc2cc(Oc3ccc(N4CCN(CCC(C)S(C)(=O)=O)CC4)nc3)nc(-c3cc(Cl)cc(Cl)c3)c2)CC1 (stereo not shown) [Example 219, 1-((1-((2-(3,5-dichlorophenyl)-6-((6-(4-(3-(methylsulfonyl)butyl)piperazin-1-yl)pyridin-3-yl)oxy)pyridin-4-yl)methyl)piperidin-4-yl)methyl)-3-methylurea]"
–,2.51 nM,0.0631 nM,"CNC(=O)NCC1CCN(Cc2cc(Oc3cnc(N4CCN(CCC(C)S(C)(=O)=O)CC4)nc3)nc(-c3cc(Cl)cc(Cl)c3)c2)CC1 (stereo not shown) [Example 220, 1-((1-((2-(3,5-dichlorophenyl)-6-((2-(4-(3-(methylsulfonyl)butyl)piperazin-1-yl)pyrimidin-5-yl)oxy)pyridin-4-yl)methyl)piperidin-4-yl)methyl)-3-methylurea]"
10.4,5.01 nM,–,"CNC(=O)NCC1CCN(Cc2cc(Oc3cnc(N4CCN(C5CC(C(=O)O)C5)CC4)nc3)nc(-c3cc(Cl)cc(Cl)c3)c2)CC1 (stereo not shown) [Example 221, 3-(4-(5-((6-(3,5-dichlorophenyl)-4-((4-((3-methylureido)methyl)piperidin-1-yl)methyl)pyridin-2-yl)oxy)pyrimidin-2-yl)piperazin-1-yl)cyclobutanecarboxylic acid]"
10.2,25.1 nM,–,"COC(=O)NCC1CCN(Cc2cc(Oc3cnc(N4CCN(C(C)CCC(=O)O)CC4)nc3)nc(-c3cc(Cl)cc(Cl)c3)c2)CC1 (stereo not shown) [Example 222, 4-(4-(5-((6-(3,5-dichlorophenyl)-4-((4-(((methoxycarbonyl)amino)methyl)piperidin-1-yl)methyl)pyridin-2-yl)oxy)pyrimidin-2-yl)piperazin-1-yl)pentanoic acid]"
9.8,5.01 nM,–,"COC(=O)NCC1CCN(Cc2cc(Oc3cnc(N4CCN(CCCS(C)(=O)=O)CC4)nc3)nc(-c3cc(Cl)cc(Cl)c3)c2)CC1 [Example 223, methyl ((1-((2-(3,5-dichlorophenyl)-6-((2-(4-(3-(methylsulfonyl)propyl)piperazin-1-yl)pyrimidin-5-yl)oxy)pyridin-4-yl)methyl)piperidin-4-yl)methyl)carbamate]"
8.7,7.94 nM,–,"CN1CCN(c2ncc(Oc3cc(CN4CC[C@@H]5[C@H](CC4)[C@H]5CC(=O)O)cc(-c4cc(Cl)cc(Cl)c4)n3)cn2)CC1 [Example 224, 2-((1R,7S,8r)-4-((2-(3,5-dichlorophenyl)-6-((2-(4-methylpiperazin-1-yl)pyrimidin-5-yl)oxy)pyridin-4-yl)methyl)-4-azabicyclo[5.1.0]octan-8-yl)acetic acid]"
8.5,10 nM,–,"CN1CCN(c2ncc(Oc3cc(CN4CCC(OC(C)(C)C(=O)O)CC4)cc(-c4cc(Cl)cc(Cl)c4)n3)cn2)CC1 [Example 225, 2-((1-((2-(3,5-dichlorophenyl)-6-((2-(4-methylpiperazin-1-yl)pyrimidin-5-yl)oxy)pyridin-4-yl)methyl)piperidin-4-yl)oxy)-2-methylpropanoic acid]"
–,15.8 nM,2.51 nM,"CN1CCN(c2ncc(Oc3cc(CN4CCC(CC(=O)O)CC4)cc(-c4cc(Cl)cc(Cl)c4)n3)cn2)CC(O)C1 (stereo not shown) [Example 226, 2-(1-((2-(3,5-dichlorophenyl)-6-((2-(6-hydroxy-4-methyl-1,4-diazepan-1-yl)pyrimidin-5-yl)oxy)pyridin-4-yl)methyl)piperidin-4-yl)acetic acid]"
8.7,39.8 nM,–,"CN(C)C1CCN(c2ncc(Oc3cc(CN4CCC(CC(=O)O)CC4)cc(-c4cc(Cl)cc(Cl)c4)n3)cn2)CC1 [Example 227, 2-(1-((2-(3,5-dichlorophenyl)-6-((2-(4-(dimethylamino)piperidin-1-yl)pyrimidin-5-yl)oxy)pyridin-4-yl)methyl)piperidin-4-yl)acetic acid]"
8.6,20 nM,–,"O=C(O)CC1CCN(Cc2cc(Oc3cnc(N4CCN(CC5(O)CC5)CC4)nc3)nc(-c3cc(Cl)cc(Cl)c3)c2)CC1 [Example 229, 2-(1-((2-(3,5-dichlorophenyl)-6-((2-(4-((1-hydroxycyclopropyl)methyl)piperazin-1-yl)pyrimidin-5-yl)oxy)pyridin-4-yl)methyl)piperidin-4-yl)acetic acid]"
8.6,10 nM,–,"CCN1CCCN(c2ncc(Oc3cc(CN4CCC(CC(=O)O)CC4)cc(-c4cc(Cl)cc(Cl)c4)n3)cn2)CC1 [Example 230, 2-(1-((2-(3,5-dichlorophenyl)-6-((2-(4-ethyl-1,4-diazepan-1-yl)pyrimidin-5-yl)oxy)pyridin-4-yl)methyl)piperidin-4-yl)acetic acid]"
8.5,10 nM,–,"CN1C[C@@H]2C[C@H]1CN2c1ncc(Oc2cc(CN3CCC(CC(=O)O)CC3)cc(-c3cc(Cl)cc(Cl)c3)n2)cn1 [Example 231, 2-(1-((2-(3,5-dichlorophenyl)-6-((2-((1S,4S)-5-methyl-2,5-diazabicyclo[2.2.1]heptan-2-yl)pyrimidin-5-yl)oxy)pyridin-4-yl)methyl)piperidin-4-yl)acetic acid]"
8.9,50.1 nM,–,"CCN1C[C@@H]2C[C@H]1CN2c1ncc(Oc2cc(CN3CCC(CC(=O)O)CC3)cc(-c3cc(Cl)cc(Cl)c3)n2)cn1 [Example 232, 2-(1-((2-(3,5-dichlorophenyl)-6-((2-((1S,4S)-5-ethyl-2,5-diazabicyclo[2.2.1]heptan-2-yl)pyrimidin-5-yl)oxy)pyridin-4-yl)methyl)piperidin-4-yl)acetic acid]"
8.2,100 nM,–,"O=C(O)CC1CCN(Cc2cc(Oc3cnc(N4CCN(C5CC5)CC4)nc3)nc(-c3cc(Cl)cc(Cl)c3)c2)CC1 [Example 233, 2-(1-((2-((2-(4-cyclopropylpiperazin-1-yl)pyrimidin-5-yl)oxy)-6-(3,5-dichlorophenyl)pyridin-4-yl)methyl)piperidin-4-yl)acetic acid]"

SMILES,furin enzyme pIC50 [1],EC50 [2],IC50 [1]
"CN1C2CC1CN(c1ncc(Oc3cc(CN4CCC(CC(=O)O)CC4)cc(-c4cc(Cl)cc(Cl)c4)n3)cn1)C2 [Example 228, 2-(1-((2-(3,5-dichlorophenyl)-6-((2-(6-methyl-3,6-diazabicyclo[3.1.1]heptan-3-yl)pyrimidin-5-yl)oxy)pyridin-4-yl)methyl)piperidin-4-yl)acetic acid]",8.6,39.8 nM,–
